# Measured values published in EPA's ToxRefDB 2.
# Columns and labels:
# rat [1] = conditions: Neurotoxicity screening battery, wistar, Oral, Feed, dose end: 90 day, group: cannot be grouped
# rabbit [2] = conditions: Prenatal developmental toxicity study, himalayan, Oral, Gavage/Intubation, dose end: 19 GD
# rat [3] = conditions: Combined chronic toxicity/carcinogenicity, sprague dawley, Oral, Feed, dose end: 115 week
# dog [4] = conditions: Chronic toxicity, beagle, Oral, Feed, dose end: 53 week
# rabbit [5] = conditions: Prenatal developmental toxicity study, himalayan, Oral, Gavage/Intubation, dose end: 18 GD
# rat [6] = conditions: Subchronic oral toxicity in rodents, sprague dawley, Feed, dose end: 13 week
# rat [7] = conditions: Subchronic oral toxicity in rodents, fischer, Feed, dose end: 13 week, group: systemic
# mouse [8] = conditions: Carcinogenicity; other; Oral; Feed; dose end: 104 week; group: systemic; systemic / pathology microscopic / eye / cataract + systemic / pathology microscopic / kidney / vacuolization
# rat [9] = conditions: Combined chronic toxicity/carcinogenicity; fischer; Oral; [Not Specified]; dose end: 105 week; group: systemic; systemic / in life observation / body weight / body weight gain + systemic / pathology microscopic / kidney / cytoplasmic alteration + …
# rat [10] = conditions: Subchronic oral toxicity in rodents, sprague dawley, Feed, dose end: 13 week, group: systemic, systemic / clinical chemistry / protein / protein + systemic / in life observation / body weight / body weight + systemic / in life …
# rabbit [11] = conditions: Prenatal developmental toxicity study, new zealand white, Oral, Gavage/Intubation, dose end: 18 GD
# mouse [12] = conditions: Carcinogenicity, cd1, Oral, Feed, dose end: 94 week, group: systemic
# rat [13] = conditions: Combined chronic toxicity/carcinogenicity; sprague dawley; Oral; Feed; dose end: 24 month; group: systemic; systemic / in life observation / body weight / body weight + systemic / in life observation / body weight / body weight gain + systemic / …
# dog [14] = conditions: Subchronic oral toxicity in nonrodent, beagle, Feed, dose end: 90 day, group: systemic
# rat [15] = conditions: Multigenerational reproductive toxicity study, wistar, Oral, Feed, dose end: 2 generation
# dog [16] = conditions: Chronic toxicity; beagle; Oral; Feed; dose end: 52 week; group: systemic; systemic / clinical chemistry / alkaline phosphatase (alp/alk) / alkaline phosphatase (alp/alk) + systemic / clinical chemistry / …
# mouse [17] = conditions: Prenatal developmental toxicity study, cd1, Oral, [Not Specified], dose end: 14 GD
# mouse [18] = conditions: Prenatal developmental toxicity study, cd1, Oral, Gavage/Intubation, dose end: 15 GD
# mouse [19] = conditions: Multigenerational reproductive toxicity study, cd1, Oral, Water, dose end: 2 generation, group: offspring
# rat [20] = conditions: Carcinogenicity; other; Oral; Feed; dose end: 24 month; group: systemic; systemic / pathology microscopic / [other] / [other]
# rat [21] = conditions: Prenatal developmental toxicity study, sprague dawley, Oral, Gavage/Intubation, dose end: 15 GD
# [22] = group: developmental, developmental / developmental malformation / bone / cranioschisis + developmental / developmental malformation / bone / exencephaly + …
# [23] = group: maternal, systemic / in life observation / clinical signs / swelling
# [24] = group: cholinesterase, cholinesterase / cholinesterase / cholinesterase / plasma cholinesterase (che) + cholinesterase / cholinesterase / cholinesterase / brain (…
# [25] = group: systemic, systemic / pathology microscopic / liver / eosinophilic focus
# [26] = group: cholinesterase, cholinesterase / cholinesterase / cholinesterase / cholinesterase (che)
# [27] = group: systemic, systemic / clinical chemistry / alkaline phosphatase (alp/alk) / alkaline phosphatase (alp/alk)
# [28] = group: maternal, reproductive / reproductive performance / aborted / aborted + reproductive / reproductive performance / resorptions / resorptions + systemic…
# [29] = group: cholinesterase, cholinesterase / cholinesterase / cholinesterase / erythrocyte cholinesterase (che)
# [30] = group: systemic, systemic / organ weight / liver / relative to body weight + systemic / pathology microscopic / liver / necrosis
# [31] = systemic / clinical chemistry / creatinine / creatinine + systemic / hematology / erythrocyte (rbc) count differential / erythrocyte (rbc…
# [32] = group: developmental, developmental / developmental malformation / bone / [other] + developmental / developmental malformation / bone / misshapen
# [33] = group: maternal, reproductive / reproductive performance / aborted / aborted + reproductive / reproductive performance / postimplantation loss / …
# [34] = systemic / in life observation / body weight / body weight gain + systemic / organ weight / liver / relative to body weight + systemic / …
# [35] = systemic / organ weight / liver / relative to body weight + systemic / pathology microscopic / liver / vacuolization
# [36] = systemic / organ weight / liver / relative to body weight + systemic / pathology microscopic / liver / vacuolization + systemic / in life …
# [37] = group: offspring, systemic / in life observation / body weight / offspring (pup) weight
# [38] = group: parental, systemic / in life observation / body weight / body weight + systemic / in life observation / body weight / body weight gain + systemic / in…
# [39] = group: developmental, systemic / in life observation / body weight / offspring (pup) weight gain
# [40] = group: maternal, systemic / in life observation / mortality / mortality
# [41] = group: developmental, developmental / developmental malformation / bone / incomplete ossification + systemic / in life observation / body weight / fetal weight + …
# [42] = group: maternal, systemic / organ weight / uterus / nos + systemic / in life observation / clinical signs / altered breathing rate + systemic / in life …
# [43] = systemic / in life observation / body weight / offspring (pup) weight + systemic / organ weight / liver / relative to body weight + systemic…
# [44] = group: developmental, developmental / developmental malformation / bone / [other] + developmental / developmental malformation / bone / delayed ossification + …
# [45] = group: maternal, systemic / in life observation / body weight / body weight + systemic / in life observation / food consumption / food consumption + systemic…
compound,measurement,setting,value
"CC(Cc1ccc(C(C)(C)C)cc1)CN1C[C@@H](C)O[C@@H](C)C1 (stereo partly drawn) [(2R,6S)-Fenpropimorph]",LEL,rat [1]; cholinesterase / cholinesterase / cholinesterase / cholinesterase (che),0.8 mg/kg/day
same,NEL,rat [1]; cholinesterase / cholinesterase / cholinesterase / cholinesterase (che) + systemic / clinical chemistry / alanine aminotransferase (alt/sgpt…,0.1 mg/kg/day
same,LOAEL,rat [1]; systemic / organ weight / liver / absolute + systemic / organ weight / liver / relative to body weight,7.1 mg/kg/day
same,NOAEL,rat [1]; systemic / organ weight / liver / absolute + systemic / organ weight / liver / relative to body weight + cholinesterase / cholinesterase / …,0.7 mg/kg/day
same,LEL,rabbit [2]; [22],30 mg/kg/day
same,LOAEL,rabbit [2]; [22],30 mg/kg/day
same,NEL,rabbit [2]; [22],15 mg/kg/day
same,NOAEL,rabbit [2]; [22],15 mg/kg/day
same,LEL,rabbit [2]; [23],30 mg/kg/day
same,LOAEL,rabbit [2]; [23],30 mg/kg/day
same,NEL,rabbit [2]; [23],15 mg/kg/day
same,NOAEL,rabbit [2]; [23],15 mg/kg/day
same,LEL,rat [3]; [24],0.2 mg/kg/day
same,LOAEL,rat [3]; [24],> 8.8 mg/kg/day
same,NEL,rat [3]; [24],< 0.2 mg/kg/day
same,NOAEL,rat [3]; [24],≥ 8.8 mg/kg/day
same,LEL,rat [3]; [25],0.2 mg/kg/day
same,NEL,rat [3]; [25],< 0.2 mg/kg/day
same,NOAEL,"rat [3]; group: systemic, systemic / pathology microscopic / liver / hypertrophy + systemic / organ weight / liver / relative to body weight",1.7 mg/kg/day
same,LOAEL,"rat [3]; group: systemic, systemic / pathology microscopic / liver / hypertrophy + systemic / pathology microscopic / liver / eosinophilic focus + systemic / …",8.8 mg/kg/day
same,LEL,dog [4]; [26],12.3 mg/kg/day
same,LOAEL,dog [4]; [26],12.3 mg/kg/day
same,NEL,dog [4]; [26],3.2 mg/kg/day
same,NOAEL,dog [4]; [26],3.2 mg/kg/day
same,LEL,dog [4]; [27],12.3 mg/kg/day
same,LOAEL,dog [4]; [27],12.3 mg/kg/day
same,NEL,dog [4]; [27],3.2 mg/kg/day
same,NOAEL,dog [4]; [27],3.2 mg/kg/day
same,LOAEL,"rabbit [5]; group: developmental, developmental / developmental malformation / general / [other]",36 mg/kg/day
same,LEL,"rabbit [5]; group: developmental, developmental / developmental malformation / general / [other] + developmental / developmental malformation / bone / misshapen",36 mg/kg/day
same,LEL,rabbit [5]; [28],36 mg/kg/day
same,LOAEL,rabbit [5]; [28],36 mg/kg/day
same,LOAEL,rat [6]; [26],> 1.54 mg/kg/day
same,NOAEL,rat [6]; [26],≥ 1.54 mg/kg/day
same,LEL,rat [6]; [29],0.465 mg/kg/day
same,NEL,rat [6]; [29],< 0.465 mg/kg/day
same,LEL,rat [6]; [30],0.768 mg/kg/day
same,LOAEL,rat [6]; [30],1.54 mg/kg/day
same,NEL,rat [6]; [30],0.382 mg/kg/day
same,NOAEL,rat [6]; [30],0.768 mg/kg/day
CCOc1nc(F)cc2nc(S(=O)(=O)Nc3c(Cl)cccc3Cl)nn12 [Diclosulam],LEL,rat [7]; [31],50 mg/kg/day
same,NEL,rat [7]; [31],< 50 mg/kg/day
same,NOAEL,rat [7]; [31],50 mg/kg/day
same,LOAEL,rat [7]; systemic / organ weight / liver / relative to body weight + systemic / pathology microscopic / liver / hypertrophy + systemic / pathology …,100 mg/kg/day
same,LEL,mouse [8],51.3 mg/kg/day
same,LOAEL,mouse [8],51.3 mg/kg/day
same,NEL,mouse [8],< 51.3 mg/kg/day
same,NOAEL,mouse [8],< 51.3 mg/kg/day
same,LEL,rat [9],102 mg/kg/day
same,LOAEL,rat [9],102 mg/kg/day
same,NEL,rat [9],5.1 mg/kg/day
same,NOAEL,rat [9],5.1 mg/kg/day
COCC(C)N(C(=O)CCl)c1c(C)csc1C (stereo not given) [Dimethenamid],LEL,rat [10],98 mg/kg/day
same,LOAEL,rat [10],98 mg/kg/day
same,NEL,rat [10],33.5 mg/kg/day
same,NOAEL,rat [10],33.5 mg/kg/day
same,LEL,rabbit [11]; [32],150 mg/kg/day
same,LOAEL,rabbit [11]; [32],150 mg/kg/day
same,NEL,rabbit [11]; [32],75 mg/kg/day
same,NOAEL,rabbit [11]; [32],75 mg/kg/day
same,LEL,rabbit [11]; [33],150 mg/kg/day
same,LOAEL,rabbit [11]; [33],150 mg/kg/day
same,NEL,rabbit [11]; [33],75 mg/kg/day
same,NOAEL,rabbit [11]; [33],75 mg/kg/day
same,LOAEL,mouse [12]; systemic / in life observation / body weight / body weight gain,200 mg/kg/day
same,LEL,mouse [12]; [34],200 mg/kg/day
same,NEL,mouse [12]; [34],40.1 mg/kg/day
same,NOAEL,mouse [12]; [34],40.1 mg/kg/day
same,LEL,rat [13],36 mg/kg/day
same,LOAEL,rat [13],36 mg/kg/day
same,NEL,rat [13],5.1 mg/kg/day
same,NOAEL,rat [13],5.1 mg/kg/day
same,LEL,dog [14]; [35],33.6 mg/kg/day
same,LOAEL,dog [14]; [35],33.6 mg/kg/day
same,NEL,dog [14]; [36],4.72 mg/kg/day
same,NOAEL,dog [14]; [36],4.72 mg/kg/day
same,LEL,rat [15]; [37],150 mg/kg/day
same,LOAEL,rat [15]; [37],150 mg/kg/day
same,NEL,rat [15]; [37],36 mg/kg/day
same,NOAEL,rat [15]; [37],36 mg/kg/day
same,LEL,rat [15]; [38],150 mg/kg/day
same,LOAEL,rat [15]; [38],150 mg/kg/day
same,NEL,rat [15]; [38],36 mg/kg/day
same,NOAEL,rat [15]; [38],36 mg/kg/day
same,LEL,dog [16],48.7 mg/kg/day
same,LOAEL,dog [16],48.7 mg/kg/day
same,NEL,dog [16],10.1 mg/kg/day
same,NOAEL,dog [16],10.1 mg/kg/day
OCCOCCOCCO [Triethylene glycol],LEL,mouse [17]; [39],11300 mg/kg/day
same,LOAEL,mouse [17]; [39],11300 mg/kg/day
same,NEL,mouse [17]; [39],4500 mg/kg/day
same,NOAEL,mouse [17]; [39],4500 mg/kg/day
same,LEL,mouse [17]; [40],11300 mg/kg/day
same,LOAEL,mouse [17]; [40],11300 mg/kg/day
same,NEL,mouse [17]; [40],4500 mg/kg/day
same,NOAEL,mouse [17]; [40],4500 mg/kg/day
same,LEL,"mouse [18]; group: developmental, developmental / developmental malformation / bone / incomplete ossification + systemic / in life observation / body weight / fetal weight",5630 mg/kg/day
same,LOAEL,mouse [18]; [41],> 11300 mg/kg/day
same,NEL,mouse [18]; [41],563 mg/kg/day
same,NOAEL,mouse [18]; [41],≥ 11300 mg/kg/day
same,LEL,"mouse [18]; group: maternal, systemic / organ weight / uterus / nos",5630 mg/kg/day
same,LOAEL,mouse [18]; [42],> 11300 mg/kg/day
same,NEL,mouse [18]; [42],563 mg/kg/day
same,NOAEL,mouse [18]; [42],≥ 11300 mg/kg/day
same,LEL,mouse [19]; systemic / in life observation / body weight / offspring (pup) weight,2000 mg/kg/day
same,NEL,mouse [19]; systemic / in life observation / body weight / offspring (pup) weight + systemic / organ weight / liver / relative to body weight,400 mg/kg/day
same,LOAEL,mouse [19]; [43],> 4000 mg/kg/day
same,NOAEL,mouse [19]; [43],≥ 4000 mg/kg/day
same,LEL,rat [20],4 mg/kg/day
same,LOAEL,rat [20],> 4 mg/kg/day
same,NEL,rat [20],< 4 mg/kg/day
same,NOAEL,rat [20],≥ 4 mg/kg/day
same,LEL,rat [21]; [44],11300 mg/kg/day
same,LOAEL,rat [21]; [44],> 11300 mg/kg/day
same,NEL,rat [21]; [44],5630 mg/kg/day
same,NOAEL,rat [21]; [44],≥ 11300 mg/kg/day
same,LEL,rat [21]; [45],5630 mg/kg/day
same,LOAEL,rat [21]; [45],> 11300 mg/kg/day
same,NEL,rat [21]; [45],1130 mg/kg/day
same,NOAEL,rat [21]; [45],≥ 11300 mg/kg/day
